{"source": "patent US4788304A", "about": "“Phospholipase A2 inhibitors” (American Home Products Corporation, priority 1987, dated 1988)", "key": {"[1]": {"system": "synthesis of the arachidonic acid cyclooxygenase oxidation product TxB2", "assay": "Inhibition of TxB2 synthesis (cyclooxygenase product) by rat polymorphonuclear leukocytes", "type": "cell-based, rat (female Wistar)", "details": "Leukocyte, A23187-stimulated rat PMN"}, "[2]": {"system": "AA-induced mouse ear edema", "assay": "Arachidonic acid (AA)-induced murine ear edema test", "type": "in vivo, mouse (Swiss Webster)", "details": "1 mg/ear, 30 min prior to AA, measured 1 h after AA"}, "[3]": {"system": "rat carrageenan paw edema", "assay": "Rat carrageenan paw edema", "type": "in vivo, rat (Sprague-Dawley)", "details": "at 50 mg/kg (peroral), 1 h prior to carrageenan; 3 h", "procedure": "The compounds in the scope of the invention are further tested in the rat carrageenan paw edema to determine their ability to inhibit the acute inflammatory response.\n[…] male Sprague-Dawley rats, in groups of 6 animals are injected subcutaneously in the right paw with 0.1 ml of 1% carrageenan at zero time. Mercury plethysmographic readings (ml) of the paw are made at zero time and 3 hours later. Test compounds are suspended or dissolved in 0.5% methylcellulose and given perorally 1 hour prior to carrageenan administration.\nThe increase in paw volume (edema in ml.) produced by the carrageenan is measured. Paw edema is calculated (3 hour volume minus zero time volume), and percent inhibition of edema is determined. Unpaired Student's t-test is used to determine statistical significance."}, "[4]": {"system": "TPA-induced mouse ear edema", "assay": "TPA-induced murine ear edema test", "type": "in vivo, mouse (Swiss Webster)", "details": "1 mg/ear, 30 min after TPA, measured 4 h after TPA"}, "human platelet PLA2": {"biological_target": "T1, human platelet PLA2 (Homo sapiens, UniProt P14555)", "T1 construct": "The PLA2 enriched supernatant fluid is removed and the amount of protein is determined by the Lowry method; from tissue; host or cells: expired human platelets from the blood bank (acid extract, not purified)", "T1 sequence (P14555 21-144)": "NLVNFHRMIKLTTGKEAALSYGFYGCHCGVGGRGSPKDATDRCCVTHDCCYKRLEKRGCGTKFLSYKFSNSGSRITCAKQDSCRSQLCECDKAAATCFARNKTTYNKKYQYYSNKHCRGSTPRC", "assay": "Inhibition of cell free human platelet PLA2 (hydrolysis of [3H]-AA labelled E. coli phospholipids)", "type": "biochemical", "details": "30 min", "procedure": "The ability of the compounds in the scope of the invention to inhibit the activity of cell free human platelet PLA2 enzyme is measured in the following in vitro assay.\nE. coli, cultured to exponential growth, are sedimented for 15 minutes at 10,000 g and resuspended in sterile isotonic saline (1-3 ml). 10-25 μCi uniformly labeled [^3 H]-arachidonic acid (AA) is added to a sterile flask, evaporated by N2 and resolubilized with 0.3 ml 20% fatty acid-free bovine serum albumen (BSA). 75-100 ml of nutrient broth and 1 ml E. coli are then added to each flask and incubated for 2-3 hours at 37° C. [^3 H]-AA labelled E. coli are then sedimented, suspended in saline and added to fresh nutrient broth and incubated for 1.5 hours at 37° C. to complete [^3 H]-AA incorporation into the phospholipids. After overnight refrigeration of cultures, E. coli are again sedimented, suspended in saline and autoclaved for 15 minutes at 120° C. E. coli cultures are washed twice with saline (first wash contains 1 % BSA) and resuspended in saline. Non-labelled E. coli cultures are also prepared in the same manner. Cell number is determined by measuring the optical density at […] (3×10 cell/ml=1 O.D.). The amount of radioactivity associated with cells is determined by counting a defined volume of cell suspension. The specific activity is subsequently adjusted by adding non-labelled E. coli to yield 2-4×10 cpm per 1×10^10 E. coli.\nExpired human platelets from the blood bank are centrifuged for 15 minutes at 200 g to obtain a platelet rich fraction and to remove the red blood cells. Platelets are sedimented for 15 minutes at 2500 g and the plasma is removed before adding cold 0.18N H2 SO4 (4 ml/unit). Platelets are homogenized, incubated for 1 hour at 4° C., homogenized again and centrifuged for 15 minutes at 10,000 g. The PLA2 enriched supernatant fluid is removed and the amount of protein is determined by the Lowry method. The preparation is divided into various portions and stored at -20° C.\nThe assay measures the hydrolysis of E. coli membrane phospholipids and the release of free [^3 H]-AA from the C-2 position of phospholipids by human platelet PLA2. To ice cold 15×100 mm test tubes, the following additions are made; 2.5×10^8 E. coli (equivalent to 5 nmol phospholipid), 5 mM Ca++, 100 mM Tris buffer (pH=7.4), 100 μg platelet extract (or an amount to produce 20-30% hydrolysis), drug or vehicle. Incubation are carried out at 37° C. in a shaking water bath for 30 minutes. The reaction is terminated by the addition of 2 volumes of tetrahydrofuran (THF) and the mixture is vortexed. Hydrolyzed [^3 H]-AA is separated from unhydrolyzed phospholipid by solid phase extraction using Bond elute NH2 columns (Analytichem Intermat.). Columns are conditioned with 0.5 ml THF followed by 0.5 ml THF:H2 O (2.0:0.1 ml v/v). Samples are loaded onto columns and hydrolyzed [^3 H]-AA is eluted with 1 ml THF:glacial acetic acid (98.0:2.0 ml v/v). The elutant is transferred to vials, 10 ml Optifluor is added and the radioactivity is determined by liquid scintillation counting.\nTreatments are corrected for non-enzymatic hydrolysis by subtracting the dpms in treatments containing no enzyme. Mean [^3 H]-AA dpm is determined and a percent inhibition relative to vehicle treated samples is calculated.\nThe percent hydrolysis is calculated by the following equation: [formula]"}}}
{"compound": "COC(=O)C1(C(=O)CCCCOc2ccc(Cl)cc2)CO1", "note": "(stereo not drawn) [Example 6A, 2-[5-(4-Chlorophenoxy)-1-oxopentyl]-2-oxiranecarboxylic acid methyl ester]", "values": [{"measurement": "inhibition at 10 µM", "setting": "[1]", "value": 30, "unit": "%"}, {"measurement": "Mouse Ear Edema Assay, % Change from Control, TOPICAL, AA", "setting": "[2]", "value": -38, "unit": "%"}, {"measurement": "% Inhibition of paw edema", "setting": "[3]", "value": 50, "unit": "%"}, {"measurement": "Mouse Ear Edema Assay, % Change from Control, TOPICAL, TPA", "setting": "[4]", "value": -42, "unit": "%"}, {"measurement": "inhibition at 50 µM", "setting": "human platelet PLA2; at 50 μM, pH 7.4, 37° C.", "value": 83.2, "unit": "%"}, {"measurement": "IC50", "setting": "human platelet PLA2; cell free human platelet PLA2, pH 7.4, 37° C., read-out: IC50 (PLA2)", "value": 10.7, "unit": "µM"}]}
